Source: patent publication US20190017026A1, “METHOD AND DEVICE FOR CONSERVING VIABLE AND FUNCTIONAL HUMAN POLYMORPHONUCLEAR NEUTROPHILS” (INSTITUT PASTEUR, priority 2014, published 2019)
Entries after “also recorded” stand apart in the source; their conditions may differ. Where a name gives a salt, the structure may show the parent alone.

Assays:
human neutrophils = assay: Neutrophil survival rate by flow cytometry (Annexin V-/PI-) upon storage; assay type: cell-based; settings: for neutrophil survival rate (Annexin V-/PI-): 3 mM glucose, 32 μg/mL DMOG
Description: Neutrophils fractions with a >95% purity obtained by applying Method 1 or Method 2 were resuspended at a 5×10^6 cells/mL concentration in RPMI 1640 with L Glutamine and 25 mM Hepes (Gibco, Life Technologies), 10% of heat inactivated Foetal Bovine Serum (FBS) (Invitrogen, Gibco) and indicated concentrations of glucose (Sigma-Aldrich) and Dimethyloxalylglycine or DMOG (Cayman Chemical Company). For comparative experiments aiming at characterizing the role of oxygen on neutrophils survival, purified neutrophils (Method 1 or Method 2) were split in two identical fractions. One was stored at 37° C. with 5% CO2 under atmospheric conditions (20% O2 condition, +O2). The second one was stored at 37° C. in an anoxic chamber ([…], Don […]) under an atmosphere containing 90% N2, 5% CO2 and 5% H2 (0% O2 condition, -O2), during indicated time. Cell viability. For neutrophil survival analysis, human neutrophils (1×10^6) were washed twice in PBS and then resuspended in 1 ml of Annexin V binding Buffer. A 100 μl sample (1×10^5 cells) was stained with 5 μl of APC-Annexin V and 5 μl of Propidium iodide (PI) (0.5 μg/ml final concentration) as recommended by the manufacturer. At least 10^4 events were acquired for each condition on a FACSCaliburTM flow cytometer (BD Biosciences), and data were analyzed using CellQuestTM Pro Software (BD Biosciences). Viable cells were defined as Annexin V-/PI- quantifications. In this study, neutrophil survival rate was evaluated in various conditions by flow cytometry, by quantifying the proportion of viable (propidium iodide negative staining, PI-) and non-apoptotic (Annexin V negative staining, Annexin V-) cells.

neutrophils = settings: normoxic conditions; cited from earlier work

SMILES: O=C(O)CC(O)(CC(=O)O)C(=O)O [citrate, sodium citrate]
- neutrophils survival rate as compared to heparin as anticoagulant (human neutrophils; blood collected with citrate, presence or absence of oxygen, 20 h and 48 h post purification): significant increase of neutrophils survival rate; also recorded: improved

SMILES: O=C(O)CN(CCN(CC(=O)O)CC(=O)O)CC(=O)O [EDTA]
- neutrophils survival as compared to citrate at blood collection (human neutrophils; blood collected with EDTA instead of citrate): even better results

SMILES: COC(=O)CNC(=O)C(=O)OC [DMOG, Dimethyloxalylglycine]
- neutrophil survival rate (Annexin V-/PI-) (human neutrophils; citrate (Method 2), anoxia, 20 h): 70±8%
- neutrophil survival rate (Annexin V-/PI-) (human neutrophils; citrate (Method 2), anoxia, 48 h): 49±2%
- neutrophil survival rate (Annexin V-/PI-) (human neutrophils; heparin (Method 1), absence of oxygen, 20 h storage): 54+10%
- neutrophil survival rate (Annexin V-/PI-) (human neutrophils; heparin (Method 1), absence of oxygen, 48 h storage): 14+10%
- effect on neutrophil apoptosis (neutrophils): decreases apoptosis
